{
  "source": "patent US20100035796A1",
  "about": "(priority 2005, published 2010)",
  "key": {"steroid sulphatase": {"molecular_target": "T1, steroid sulphatase (Homo sapiens, UniProt P08842)", "T1 sequence (P08842 22-583)": "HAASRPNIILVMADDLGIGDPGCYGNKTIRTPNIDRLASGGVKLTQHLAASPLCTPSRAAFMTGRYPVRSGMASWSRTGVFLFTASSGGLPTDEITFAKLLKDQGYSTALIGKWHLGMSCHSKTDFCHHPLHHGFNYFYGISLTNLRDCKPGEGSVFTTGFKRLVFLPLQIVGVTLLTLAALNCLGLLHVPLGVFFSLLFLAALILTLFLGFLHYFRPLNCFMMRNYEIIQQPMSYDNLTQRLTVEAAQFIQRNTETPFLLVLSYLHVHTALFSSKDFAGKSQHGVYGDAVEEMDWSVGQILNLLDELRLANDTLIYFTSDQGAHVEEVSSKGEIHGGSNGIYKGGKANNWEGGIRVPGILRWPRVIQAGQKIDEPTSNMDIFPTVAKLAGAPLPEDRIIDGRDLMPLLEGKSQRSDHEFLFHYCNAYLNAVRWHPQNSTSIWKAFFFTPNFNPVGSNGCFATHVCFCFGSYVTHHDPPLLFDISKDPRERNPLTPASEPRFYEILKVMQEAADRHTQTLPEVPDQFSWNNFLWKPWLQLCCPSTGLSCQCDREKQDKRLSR", "conditions": "R. P. Boivin et al., J. Med. Chem. 2000; cited from earlier work"}, "estrogen receptor": {"system": "estrogen receptor", "assay": "Activity on the estrogen receptor in ERE-luc mice, photometric analysis with CCD camera", "format": "in vivo", "method": "(§1) The activity of two compounds of the invention, 17α-(5-acetoxy)pent-1-inyl-1,3,5(10)-estratriene-3,17β-diol and 17α-(5-propanoyl-oxy)pent-1-inyl-1,3,5(10)-estratriene-3,170-diol, was determined in a cell culture and in a transgenic animal model using female adult ERE-luc mice which were ovariectomised or sham-operated three weeks before the experiment. This model allows the anti-inflammatory activity, effect on the estrogen receptor and wound-healing activity to be evaluated.\n(§2) Each of the two test compounds was dissolved immediately before use in 99% ethanol, and a 10 mM mother solution was prepared. The successive dilutions were performed in saline solution (0.9% NaCl in bidistilled water).\nThe activity on the estrogen receptor was evaluated by photometric analysis with CCD chamber after 0, 24, 48 and 72 hours. The animals were then killed, and the tissue surrounding the wound was removed."}, "IL-6": {"system": "IL-6", "assay": "Expression of inflammation markers in the wound model (second study): IL-6", "format": "in vivo, mice"}, "sun-damaged skin": {"system": "sun-damaged skin", "conditions": "hairless mice; Gendimenico et al. 2002; cited from earlier work"}, "TGF-β": {"system": "TGF-β", "assay": "Expression of inflammation markers in the wound model (second study): TGF-β", "format": "in vivo, mice"}, "wound": {"system": "wound", "conditions": "cited from earlier work; for wound-healing on topical use: used topically, Ashcroft et al. 2003b"}, "CD74": {"system": "CD74", "assay": "Expression of inflammation markers in the wound model (second study): CD74", "format": "in vivo, mice"}, "ERβ": {"system": "ERβ", "assay": "Expression of estrogen receptors in ovariectomised animals: ERβ-positive cells", "format": "in vivo, mice"}, "MIF": {"system": "MIF", "assay": "Expression of inflammation markers in the wound model (second study): MIF", "format": "in vivo, mice"}, "ERα": {"system": "ERα", "assay": "Expression of estrogen receptors in ovariectomised animals: ERα-positive cells", "format": "in vivo, mice"}, "cutaneous wound": {"system": "cutaneous wound", "assay": "Wound-healing activity: histological sections of the tissue surrounding the wound", "format": "in vivo, mice", "method": "as §1, §2\nHistological sections were prepared from the tissue surrounding the wound to evaluate the wound-healing activity. For the histological preparation, the tissue was fixed in 10% formalin (in buffer solution) and embedded in paraffin wax. The sections were stained with haematoxylin-eosin to evaluate the state of inflammation and wound-healing. The sections were also used to quantify the state of infiltration of the macrophages 4 days after the wound, using anti-Mac2 antibodies, and for further staining designed to detect the state of wound-healing and characterise the cells present in the wound area."}},
  "data": [
    {"smiles": "C[C@]12CC[C@@H]3c4ccc(O)cc4CC[C@H]3[C@@H]1CC[C@@]2(O)C#CCBr", "note": "[17α-(3-bromopropin-1-yl)estradiol]", "values": [
      {"measurement": "inhibitory effect on steroid sulphatase", "setting": "steroid sulphatase", "result": "high"}
    ]},
    {"smiles": "CCC(=O)OCCCC#CC1(O)CCC2C3CCc4cc(O)ccc4C3CCC21C", "note": "(stereo not drawn) [Example 8, 17α-(5-Propanoyloxy)pent-1-ynyl-1,3,5(10)-estratrien-3,17β-diol]", "values": [
      {"measurement": "estrogenic effect in areas other than the area of administration (systemic activity)", "setting": "estrogen receptor; CCD camera, intradermal in loco", "result": "a slight systemic activity"}
    ]},
    {"smiles": "C[C@]12CC[C@@H]3c4ccc(O)cc4CC[C@H]3[C@@H]1CC[C@@H]2O", "note": "[estradiol, 17beta-estradiol]", "values": [
      {"measurement": "expression of IL-6", "setting": "IL-6", "result": "limit the expression of all the inflammation proteins studied"},
      {"measurement": "repair of sun-damaged skin", "setting": "sun-damaged skin", "result": "repair the sun-damaged skin of hairless mice"},
      {"measurement": "expression of TGF-β", "setting": "TGF-β", "result": "limit the expression of all the inflammation proteins studied"},
      {"measurement": "wound-healing on topical use", "setting": "wound", "result": "promote wound-healing"},
      {"measurement": "expression of CD74", "setting": "CD74", "result": "limit the expression of all the inflammation proteins studied"},
      {"measurement": "number of cells that express the β estrogen receptor", "setting": "ERβ", "result": "increases the number of cells that test positive for both receptors"},
      {"measurement": "expression of MIF", "setting": "MIF", "result": "limit the expression of all the inflammation proteins studied"}
    ]},
    {"smiles": "C[C@]12CC[C@@H]3c4ccc(O)cc4CC[C@H]3[C@@H]1CC[C@H]2O", "note": "[17α-estradiol]", "values": [
      {"measurement": "repair of sun-damaged skin", "setting": "sun-damaged skin", "result": "repair the sun-damaged skin of hairless mice"}
    ]},
    {"smiles": "CC(=O)OCCCC#C[C@]1(O)CC[C@H]2[C@@H]3CCc4cc(O)ccc4[C@H]3CC[C@@]21C", "note": "[Example 7, 17α-(5-acetoxy)pent-1-ynyl-1,3,5(10)-estratrien-3,17β-diol]", "values": [
      {"measurement": "number of cells that test positive for the α estrogen receptor", "setting": "ERα", "result": "does not act on the number of cells that test positive for the α receptor"},
      {"measurement": "estrogenic effect in areas other than the area of administration (systemic activity)", "setting": "estrogen receptor; mouse, in vivo", "result": "does not have a detectable estrogenic effect"},
      {"measurement": "uterotrophic activity", "setting": "estrogen receptor; mouse, in vivo", "result": "does not present uterotrophic activity"},
      {"measurement": "efficacy of the wound-healing effect", "setting": "cutaneous wound; second study, 5 animals per group, compared with estradiol", "result": "statistically similar to that of the natural hormone"},
      {"measurement": "effect on the wound-healing process", "setting": "cutaneous wound; summary statement", "result": "marked effect on the wound-healing process"},
      {"measurement": "expression of TGF-β", "setting": "TGF-β", "result": "significantly inhibited the expression"},
      {"measurement": "expression of CD74", "setting": "CD74", "result": "significantly inhibited the expression"},
      {"measurement": "number of cells that express the β estrogen receptor", "setting": "ERβ", "result": "does not significantly reduce the number of cells that express the β receptor"},
      {"measurement": "expression of MIF", "setting": "MIF", "result": "significantly inhibited the expression"}
    ]},
    {"smiles": "CC12CCC3c4ccc(O)cc4CCC3C1CCC2(O)C#CCO", "note": "(stereo not drawn) [17α-(3-hydroxypropin-1-yl)estradiol]", "values": [
      {"measurement": "inhibitory effect on steroid sulphatase", "setting": "steroid sulphatase", "result": "very low"}
    ]},
    {"smiles": "C[C@]12CC[C@@H]3c4ccc(O)cc4CC[C@H]3[C@@H]1C[C@@H](O)[C@@H]2O", "note": "[estriol]", "values": [
      {"measurement": "activity relative to estradiol", "setting": "wound; Shah et al. 2001", "result": "much less active than estradiol"},
      {"measurement": "wound-healing on topical use", "setting": "wound", "result": "promote wound-healing"}
    ]}
  ]
}
